Laboratory results: patent US20260315609A1, “MIXED VASOPRESSIN RECEPTOR AGONIST-ANTAGONIST FOR TREATING END-STAGE LIVER DISEASE AND COMPLICATIONS ASSOCIATED THEREOF” (FERRING B.V., priority 2022, published 2026)
Read-outs that look alike come from different tables or passages of the source. Starred links: 1 amine or outer side, 2 acyl side, 3 side chain; linkers in the order of their positions; H or OH if unused. Positions of bridges follow the written chain, without caps; N, C: chain ends. Non-standard residues stand in square brackets, D forms with d. Residues, ends and D or L forms follow the SMILES beside them. Chains are numbered I, II in the order given. *: point of attachment. isoGln = NC(=O)[C@H](CCC(=O)[*:2])N[*:1]; εLys = N[C@@H](CCCCN[*:1])C(=O)[*:2]; Dab = NCC[C@H](N)C(=O)O; PhAc = O=C(Cc1ccccc1)*

Key:
[1] = PK of Compound 1, once daily subcutaneous (bolus) injection for 5 days in healthy men and women (Period 2); format: in vivo, human
Source text: (§1) In some instances, endpoints of the study were: vital signs (e.g., supine blood pressure, pulse, and body temperature), electrocardiogram (ECG) (e.g., intervals, rhythm, and morphology), cardiac function (e.g., cardiac output using echocardiography), peripheral blood flow/tissue perfusion (e.g., by skin color), venous blood gases (e.g., lactate), urinary output, clinical chemistry, hematology, hemostasis, and urinalysis, adverse events (AEs) (e.g., type, frequency, and intensity), pharmacokinetics (e.g., AUC, AUCt, AUCτ, % Extrap AUC, Cmax, tmax, CL, Vz, t1/2, MRT, Vss, F, Ae, and CLR), and metabolite pattern in plasma and urine.

vasopressin V1a receptor = test: Pharmacodynamics (blood pressure, MAP, pulse rate, peripheral blood flow, cardiac output, urine volume) in healthy subjects; format: in vivo, human
Protocol: In some embodiments, MAP is calculated from measurements of systolic blood pressure and diastolic blood pressure. In some embodiments, MAP is calculated when taking into account the pressure during a single cardiac cycle. In some embodiments, MAP is ⅓ (systolic blood pressure−diastolic blood pressure)+diastolic blood pressure.
as §1

[2] = Excretion of Compound 1 in urine of healthy subjects; format: in vivo, human; details: for dose excreted: human, urine, read-out: fraction of dose excreted unchanged in urine
Protocol: Urinalysis was performed locally by means of a dip-stick test. […] In case any result of the dipstick was abnormal and clinically significant, a new urine test was to be performed. If the abnormal result was confirmed, further examination could be initiated at the discretion of the Investigator. Clinically significant abnormal findings were reported as AEs. The metabolite pattern of Compound 1 in plasma and urine were measured.
as §1

[3] = M1 formation, subcutaneous infusion in mini-pigs; parameters: species or system mini-pig; details: minipig, in vivo, sc, s.c. infusion
[4] = Safety and tolerability in healthy rats; format: in vivo, rat
Protocol: Rat models were used as a model to assess PK/PD of Compound 1.
Four adult male Sprague Dawley rats were catheterized via the carotid artery (for blood collection). […] Blood samples were collected at nominal times of 5, 10, 20, 40, 60, 90, 120, 180, 240, and 300 min after administration using an automated blood sampling system as described above. Plasma was prepared from whole blood using K2EDTA as anticoagulant. Subsequent bioanalysis of samples included compound extraction and plasma concentration determination using standard LC/MS methods.
The study was performed using six adult male Sprague Dawley rats, aged ~11 weeks. The pressure catheter was a polyurethane tubing that extended out of the device body and was inserted into the lower abdominal aorta. A postoperative injection of analgesia (flunixin, 5 mg per animal; Finadyne®, Schering-Plough) was given once immediately after implantation, and once at an interval of 24 h. The surgical wounds were disinfected with povidone iodine (Vétédine®, Vetoquinol SA) for 4 consecutive days. After surgery, the animals recovered for ~2 weeks before first study administration (day 0).
On the days of administration, animals were examined before and immediately after administration, and at least once after dosing (after the ≥4-h analysis time point) to detect any clinical signs or reaction to administration. A full clinical examination was performed weekly.

rV1b receptor = target: T1, rV1b receptor (Rattus norvegicus, UniProt P48974); test: Luciferase reporter gene assay, rat V1b; details: read-out: % MPE
T1 sequence (P48974 1-425): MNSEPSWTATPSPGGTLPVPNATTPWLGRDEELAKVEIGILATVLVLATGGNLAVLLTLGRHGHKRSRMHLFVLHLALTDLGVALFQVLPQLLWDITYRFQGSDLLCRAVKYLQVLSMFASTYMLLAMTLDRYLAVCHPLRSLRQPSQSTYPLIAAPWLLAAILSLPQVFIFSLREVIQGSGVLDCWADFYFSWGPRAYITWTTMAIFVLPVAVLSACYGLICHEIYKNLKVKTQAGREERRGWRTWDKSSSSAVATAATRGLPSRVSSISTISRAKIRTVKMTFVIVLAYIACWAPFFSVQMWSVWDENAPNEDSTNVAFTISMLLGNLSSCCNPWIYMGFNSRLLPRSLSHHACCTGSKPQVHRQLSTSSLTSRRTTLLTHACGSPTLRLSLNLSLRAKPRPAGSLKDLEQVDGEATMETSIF
Protocol: Cell Lines. Studies were conducted with cell lines expressing rat (r) or human (h) Via, V1b, V2, or OT receptors. For the experiments with human receptors, human embryonic kidney (HEK)-flp-in cells stably expressing the lacZ-Zeocin™ fusion gene were used for expression of hV1a and hV1b. These cells were designed for use with the Flp-In™ expression vector containing the gene of interest (here hV1a or hV1b) and the Flp recombinase expression plasmid, pOG44. For hV2 and hOTR, HEK-293 cells transiently expressing hV2 were used.
Cell Maintenance. […]
Functional Cell-Based Assays. To detect activity generated by binding of the test compounds to endogenous rV1a receptors or the stably expressed hV1a receptors, Fluorometric Imaging Plate Reader (FL1PR) calcium assays were performed. Briefly, real-time fluorescence of an intracellular calcium-sensitive dye was measured immediately upon addition of the test compound at various concentrations. […] Expression of the luciferase gene was determined after 5-h incubation with various concentrations of test compound. […] For V1a receptor response, area under the curve of the real-time calcium traces, expressed as relative fluorescence units, was determined. […]

[5] = s.c. 0.1 mg, 1st administration
[6] = s.c. 0.1 mg, 5th administration
[7] = s.c. 0.3 mg, 1st administration
[8] = s.c. 0.3 mg, 5th administration

CC[C@H](C)[C@@H]1NC(=O)[C@H](Cc2ccccc2)NC(=O)[C@@H](N)CSSC[C@@H](C(=O)N2CCC[C@H]2C(=O)N[C@@H](CCNC(=O)[C@@H](N)CCCCNC(=O)[C@H](CCCCNC(C)=O)NC(=O)CC[C@H](NC(=O)[C@H](CCCNC(=N)N)NC(=O)[C@@H]2CCCN2C(=O)[C@H](C)NC(=O)[C@H](CC(N)=O)NC(=O)[C@H](CCC(N)=O)NC(=O)[C@H](Cc2ccccc2)NC(=O)[C@@H](Cc2ccc(OC)cc2)NC(=O)Cc2ccccc2)C(N)=O)C(=O)NCC(N)=O)NC(=O)[C@H](CC(N)=O)NC(=O)[C@H](CCC(N)=O)NC1=O [Compound 1, Glycinamide, L-cysteinyl-L-phenylalanyl-L-isoleucyl-L-glutaminyl-L-asparaginyl-L-cysteinyl-L-prolyl-N4-(phenylacetyl-O-methyl-D-tyrosyl-L-phenylalanyl-L-glutaminyl-L-asparaginyl-L-alanyl-L-prolyl-L-arginyl-L-isoglutamyl-N5-acetyl-L-lysyl-L-ε-lysyl)-L-2,4-diaminobutyryl-, cyclic (1→6)-disulfide] (I: H-CFIQNCP[Dab]G-NH2 / II: PhAc-[dY](Me)FQNAPR[isoGln]K(Ac)[εLys]; disulfide I:1-I:6; amide I:8-II:C)
bioavailability ([1]; repeated s.c. injections, versus i.v.): about 18% | terminal half-life (summary) ([1]; s.c.): about 1 hours | tmax (summary) ([1]; s.c.): about 0.3 hours | AUC, geometric mean [1, 5]: 0.87 (22) h*ng/mL | AUC, mean [1, 5]: 0.88 (0.19) h*ng/mL | Cmax, geometric mean [1, 5]: 0.43 (41) ng/mL | Cmax, mean [1, 5]: 0.46 (0.17) ng/mL | tmax, mean [1, 5]: 0.3 (0.1) h | AUC, geometric mean [1, 6]: 0.70 (3) h*ng/mL | AUC, mean [1, 6]: 0.70 (0.02) h*ng/mL | Cmax, geometric mean [1, 6]: 0.42 (28) ng/mL | Cmax, mean [1, 6]: 0.43 (0.14) ng/mL | tmax, mean [1, 6]: 0.3 (0.1) h | AUC, geometric mean [1, 7]: 6.40 (109) h*ng/mL | AUC, mean [1, 7]: 7.90 (5.01) h*ng/mL | Cmax, geometric mean [1, 7]: 2.45 (98) ng/mL | Cmax, mean [1, 7]: 2.99 (2.03) ng/mL | t1/2, mean [1, 7]: 1.6 (0.7) h | tmax, mean [1, 7]: 0.4 (0.5) h | AUC, geometric mean [1, 8]: 2.77 (113) h*ng/mL | AUC, mean [1, 8]: 3.36 (2.69) h*ng/mL | Cmax, geometric mean [1, 8]: 1.42 (58) ng/mL | Cmax, mean [1, 8]: 1.52 (0.79) ng/mL | tmax, mean [1, 8]: 0.4 (0.2) h | tmax, median [1, 8]: 24 min | median tmax ([1]; s.c. 0.1 and 0.3 mg, 1st and 5th administrations): 18 to 24 min | reduction in cardiac output, mean (vasopressin V1a receptor; 0.9 mg i.v., echocardiography): 3%-12 | individual decreases in cardiac output (vasopressin V1a receptor; any dose, i.v. and s.c., echocardiography): 20-25% | AE of moderate decreased cardiac output (vasopressin V1a receptor; i.v. 0.1 mg): One | subjects with hyperemia (vasopressin V1a receptor; i.v. 0.45 mg, 30 and 90 minutes): 1 subject | urinary volume (vasopressin V1a receptor; i.v. and s.c.): no apparent dose related trends or changes | cardiac output versus placebo (vasopressin V1a receptor; i.v., except 0.1 mg group): decreased | subjects with pallor (vasopressin V1a receptor; i.v., mainly 0.45, 0.6 and 0.9 mg): 18 subjects | cardiac output (vasopressin V1a receptor; s.c. 0.1 and 0.3 mg): slight reduction | subjects with pallor (vasopressin V1a receptor; s.c. 0.1 and 0.3 mg, after 1st dose): About 30% | dose excreted ([2]; iv): < 10% | dose excreted ([2]; sc): < 5% | amount excreted in urine, 4-8 hours ([2]; i.v. 0.1 mg): about 3 μg | amount excreted in urine, 4-8 hours ([2]; i.v. 0.3 mg): ~9 µg | amount excreted in urine, 4-8 hours ([2]; i.v. 0.45 mg): ~16 µg | amount excreted in urine, 4-8 hours ([2]; i.v. 0.6 mg): ~24 µg | amount excreted in urine, 4-8 hours ([2]; i.v. 0.9 mg): ~37 µg | amount excreted in urine, first 4 hours [2, 5]: about 2 μg | amount excreted in urine, first 4 hours [2, 6]: about 0.3 μg | amount excreted in urine, first 4 hours [2, 7]: ~3 µg | amount excreted in urine, first 4 hours [2, 8]: ~1.5 µg | metabolised [3]: < 20% | animals with local reaction at injection site ([4]; SC 4 and 20 mg/kg): three of the six | tolerability ([4]; SC bolus): well tolerated | bodyweight gain ([4]; SC, four administrations up to 20 mg/kg): did not influence bodyweight gain | deaths ([4]; SC, up to 20 mg/kg): no deaths occurred | tolerability ([4]; single SC, conscious rats, all tested dose levels): well tolerated at all tested dose levels | tolerability ([4]; single-dose IV bolus (cassette)): well tolerated | Emax (rV1b receptor): 97%
